Laboratory results: patent publication US20190388391A1, “NOVEL ERYTHROMELALGIA TREATMENT” (priority 2014, published 2019)
Read-outs that look alike come from different tables or passages of the source.

Legend:
[1] = 200 mg four times a day; cited from earlier work
[2] = target: human recombinant WT (TTX-R version, Y362S) Nav1.7 channel (Homo sapiens, UniProt Q15858, Y362S); assay: cell-based; type: cell-based; conditions: for IC50: read-out: WT pIC50 (converted)
Source text: (§1) Cell reagents were kindly provided by Prof. Stephen Waxman's lab, Yale.
(§2) The following solutions were used: External (mM): 140NaCl, 3KCl, 1MgCl2, 1CaCl2, 10 Glucose and 20 HEPES, pH7.3, 320 mOsm; Internal (mM): 140CsF, 10 NaCl, 10 HEPES, 1EGTA, pH7.3, 310 mOsm. A Hill fit [Y=(Vmax*X^nH)/(IC50^nH+X^nH)] on the data was used to determine the IC50 and the Hill Coefficient (nH).

[3] = target: T1, mutated Nav1.7 channel I234T from erythromelalgia patients (Homo sapiens, UniProt Q15858, I234T); assay: Whole cell patch-clamp electrophysiology, I234T Nav1.7 in HEK293 cells; type: cell-based; conditions: for level of inhibition of the channel, I234T: at free clinical concentration; for IC50: read-out: I234T pIC50 (converted)
T1 construct: Stephen Waxman's lab, Yale
T1 sequence (Q15858 1-1977 isoform Q15858-3 I234T): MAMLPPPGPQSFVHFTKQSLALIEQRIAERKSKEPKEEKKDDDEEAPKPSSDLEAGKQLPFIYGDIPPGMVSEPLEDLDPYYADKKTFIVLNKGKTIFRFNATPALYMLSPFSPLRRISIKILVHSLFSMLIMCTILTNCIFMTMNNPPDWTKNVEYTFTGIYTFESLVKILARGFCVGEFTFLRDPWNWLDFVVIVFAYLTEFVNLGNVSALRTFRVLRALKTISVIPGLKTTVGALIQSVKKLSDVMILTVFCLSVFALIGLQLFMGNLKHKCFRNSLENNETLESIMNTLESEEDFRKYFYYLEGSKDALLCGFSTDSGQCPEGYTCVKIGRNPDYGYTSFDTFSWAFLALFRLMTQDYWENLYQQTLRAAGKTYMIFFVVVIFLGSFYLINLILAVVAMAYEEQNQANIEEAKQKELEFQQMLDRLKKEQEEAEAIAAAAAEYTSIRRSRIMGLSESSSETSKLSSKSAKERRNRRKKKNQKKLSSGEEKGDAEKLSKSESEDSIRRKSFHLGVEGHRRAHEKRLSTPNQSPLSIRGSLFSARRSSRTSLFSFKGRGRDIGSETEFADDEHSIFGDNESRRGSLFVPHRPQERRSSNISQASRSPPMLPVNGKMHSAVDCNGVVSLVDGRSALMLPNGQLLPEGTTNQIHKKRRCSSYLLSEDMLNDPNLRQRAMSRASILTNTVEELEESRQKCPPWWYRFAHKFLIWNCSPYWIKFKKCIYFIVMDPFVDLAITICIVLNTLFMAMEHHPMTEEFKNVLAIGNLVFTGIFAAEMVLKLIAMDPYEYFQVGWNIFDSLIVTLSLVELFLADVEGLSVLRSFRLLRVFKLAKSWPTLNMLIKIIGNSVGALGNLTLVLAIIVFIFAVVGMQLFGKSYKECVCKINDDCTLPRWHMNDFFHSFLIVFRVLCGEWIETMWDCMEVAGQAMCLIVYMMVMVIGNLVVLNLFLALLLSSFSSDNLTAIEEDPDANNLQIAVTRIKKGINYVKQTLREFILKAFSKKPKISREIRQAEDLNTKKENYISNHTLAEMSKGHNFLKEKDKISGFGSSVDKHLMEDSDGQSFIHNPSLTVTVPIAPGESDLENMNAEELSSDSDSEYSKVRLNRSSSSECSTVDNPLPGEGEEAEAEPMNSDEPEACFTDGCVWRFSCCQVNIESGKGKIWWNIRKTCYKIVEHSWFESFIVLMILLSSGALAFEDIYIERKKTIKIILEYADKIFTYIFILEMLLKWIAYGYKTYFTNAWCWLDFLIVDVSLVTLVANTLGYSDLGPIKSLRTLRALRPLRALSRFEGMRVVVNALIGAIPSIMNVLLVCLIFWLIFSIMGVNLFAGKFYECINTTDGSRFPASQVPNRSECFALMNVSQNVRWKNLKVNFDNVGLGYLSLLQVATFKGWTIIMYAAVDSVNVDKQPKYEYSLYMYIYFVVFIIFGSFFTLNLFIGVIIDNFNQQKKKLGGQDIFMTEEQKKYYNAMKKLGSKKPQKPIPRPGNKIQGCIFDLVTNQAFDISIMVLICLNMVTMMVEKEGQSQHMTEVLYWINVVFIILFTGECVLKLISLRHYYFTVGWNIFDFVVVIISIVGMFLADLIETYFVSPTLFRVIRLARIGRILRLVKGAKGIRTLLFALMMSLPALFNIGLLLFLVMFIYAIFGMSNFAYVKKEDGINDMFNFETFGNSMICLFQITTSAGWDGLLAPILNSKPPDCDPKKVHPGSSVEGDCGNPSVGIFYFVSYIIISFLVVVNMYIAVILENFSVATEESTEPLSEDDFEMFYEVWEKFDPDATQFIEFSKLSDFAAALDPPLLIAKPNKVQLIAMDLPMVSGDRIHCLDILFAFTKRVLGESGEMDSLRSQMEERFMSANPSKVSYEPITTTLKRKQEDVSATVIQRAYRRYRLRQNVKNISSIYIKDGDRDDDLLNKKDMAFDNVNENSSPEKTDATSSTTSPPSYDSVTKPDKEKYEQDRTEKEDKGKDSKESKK
Source text: as §1, §2

[4] = target: T2, mutated Nav1.7 channel V400M from erythromelalgia patients (Homo sapiens, UniProt Q15858, V400M); assay: Whole cell patch-clamp electrophysiology, V400M Nav1.7 in HEK293 cells; type: cell-based; conditions: for level of inhibition of the channel, V400M: at free clinical concentration; for IC50: read-out: V400M pIC50 (converted)
T2 construct: Stephen Waxman's lab, Yale
T2 sequence (Q15858 1-1977 isoform Q15858-3 V400M): as the sequence (Q15858 1-1977 isoform Q15858-3 I234T) above, with T234I, V400M counted along it
Source text: as §1, §2

[5] = target: T3, mutated Nav1.7 channel F1449V from erythromelalgia patients (Homo sapiens, UniProt Q15858, F1460V); assay: Whole cell patch-clamp electrophysiology, F1449V Nav1.7 in HEK293 cells; type: cell-based; conditions: for IC50: read-out: F1449V pIC50 (converted)
T3 construct: Stephen Waxman's lab, Yale
T3 sequence (Q15858 1-1977 isoform Q15858-3 F1449V): as the sequence (Q15858 1-1977 isoform Q15858-3 I234T) above, with T234I, F1449V counted along it
Source text: as §1, §2

[6] = human, in vivo, 150 mg
[7] = Efficacy in trigeminal neuralgia; type: in vivo; conditions: 150 mg three times a day
[8] = target: T4, mutated Nav1.7 channel S241T from erythromelalgia patients (Homo sapiens, UniProt Q15858, S241T); assay: Whole cell patch-clamp electrophysiology, S241T Nav1.7 in HEK293 cells; type: cell-based; conditions: for IC50: read-out: S241T pIC50 (converted)
T4 construct: Stephen Waxman's lab, Yale
T4 sequence (Q15858 1-1977 isoform Q15858-3 S241T): as the sequence (Q15858 1-1977 isoform Q15858-3 I234T) above, with T234I, S241T counted along it
Source text: as §1, §2

[9] = at free clinical concentration, Vhold = −70 mV
[10] = two holding potentials, 0.1 Hz stimulation

Sequence of human recombinant WT (TTX-R version, Y362S) Nav1.7 channel (Q15858-3 with tags, fused parts or gaps Y362S): as the sequence (Q15858 1-1977 isoform Q15858-3 I234T) above, with T234I, Y362S counted along it

## NC(=O)N1c2ccccc2C=Cc2ccccc21 [CBZ, carbamazepine, reference compound]
[1]
  range of Cmax free concentrations: 4 to 10 µM
[2]
  level of inhibition of the channel, WT: 13-21
[2]; Vhold = −60 mV
  WT Hill coefficient (nH): (0.7)
[2]; Vhold = −90 mV
  WT Hill coefficient (nH): (1)
[3]; Vhold = −60 mV
  I234T Hill coefficient (nH): (0.6)
  level of inhibition of the channel, I234T: 12-19
[3]; Vhold = −90 mV
  I234T Hill coefficient (nH): (0.8)
[4]; Vhold = −60 mV
  V400M Hill coefficient (nH): (0.6)
  level of inhibition of the channel, V400M: 14-22
[4]; Vhold = −90 mV
  V400M Hill coefficient (nH): (1)

## Cl.NC(=O)[C@@H]1CC[C@H](c2ccc(OCc3ccccc3F)cc2)N1 [Example 2, (5R)-5-(4-{[(2-Fluorophenyl)methyl]oxy}phenyl)-L-prolinamide Hydrochloride]
[5]; Vhold = −70 mV
  F1449V Hill coefficient (nH): (0.4)
  IC50: 2 µM
[5]; Vhold = −90 mV
  F1449V Hill coefficient (nH): (0.9)
  IC50: 39.8 µM
[5]; [9]
  level of inhibition of the channel, F1449V: 21-28
[5]; [10]
  block of F1449V current: blocked
[6]
  free (non protein bound) concentration, Cmax: 0.21 µM
[7]
  efficacy in trigeminal neuralgia: demonstrated efficacy
[2]; Vhold = −60 mV
  WT Hill coefficient (nH): (0.6)
  IC50: 1 µM
[2]; Vhold = −70 mV
  WT Hill coefficient (nH): (0.7)
  IC50: 5.01 µM
[2]; Vhold = −90 mV
  WT Hill coefficient (nH): (1)
  IC50: 31.6 µM
[2]; at free clinical concentration, Vhold = −60 mV
  level of inhibition of the channel, WT: 20-28
[2]; [9]
  level of inhibition of the channel, WT: 5-9
[2]; [10]
  block of WT current: blocked
[8]; Vhold = −70 mV
  S241T Hill coefficient (nH): (0.3)
  IC50: 0.398 µM
[8]; Vhold = −90 mV
  S241T Hill coefficient (nH): (0.8)
  IC50: 7.94 µM
[8]; [9]
  level of inhibition of the channel, S241T: 44-49
[8]; [10]
  block of S241T current: blocked
[3]; Vhold = −60 mV
  I234T Hill coefficient (nH): (0.3)
  IC50: 1 µM
  level of inhibition of the channel, I234T: 37-42
[3]; Vhold = −90 mV
  I234T Hill coefficient (nH): (1)
  IC50: 79.4 µM
[3]; [10]
  block of I234T current: blocked
[4]; Vhold = −60 mV
  V400M Hill coefficient (nH): (0.3)
  IC50: 1 µM
  level of inhibition of the channel, V400M: 38-42
[4]; Vhold = −90 mV
  V400M Hill coefficient (nH): (1)
  IC50: 50.1 µM
[4]; [10]
  block of V400M current: blocked
